Data taken from the NIST ThermoML archive (doi:10.1016/j.jct.2018.11.014).
Numbers after ± are expanded uncertainties.

Experiment: molar heat capacity at constant pressure
Conditions: 101.33 kPa, Crystal, Vacuum adiabatic calorimetry

O=C(CO)[C@@H](O)[C@H](O)[C@H](O)CO [D-fructose]
Conditions	molar heat capacity at constant pressure [J/K/mol]
10 K	0.91 ± 0.02
14.06 K	2.815 ± 0.037
14.48 K	3.13 ± 0.04
14.92 K	3.379 ± 0.043
15.36 K	3.634 ± 0.045
15.81 K	3.919 ± 0.049
16.27 K	4.218 ± 0.052
16.77 K	4.66 ± 0.056
17.29 K	5.05 ± 0.06
17.75 K	5.334 ± 0.063
18.24 K	5.753 ± 0.067
18.76 K	6.186 ± 0.072
19.31 K	6.585 ± 0.076
19.89 K	7.065 ± 0.081
20 K	7.19 ± 0.08
20.47 K	7.626 ± 0.086
21.03 K	8.082 ± 0.091
21.55 K	8.514 ± 0.095
22.09 K	9.015 ± 0.1
22.64 K	9.566 ± 0.11
23.22 K	10.1 ± 0.11
23.84 K	10.61 ± 0.12
24.41 K	11.21 ± 0.12
24.96 K	11.67 ± 0.13
25.84 K	12.67 ± 0.14
26.71 K	13.5 ± 0.14
27.31 K	14.07 ± 0.15
28.19 K	14.91 ± 0.16
29.03 K	15.7 ± 0.17
29.58 K	16.16 ± 0.17
30 K	16.66 ± 0.18
30.14 K	16.84 ± 0.18
30.73 K	17.43 ± 0.18
31.35 K	18.05 ± 0.19
31.98 K	18.53 ± 0.19
32.62 K	19.19 ± 0.2
33.28 K	19.89 ± 0.21
33.96 K	20.59 ± 0.21
34.65 K	21.26 ± 0.22
35.36 K	21.95 ± 0.23
36.07 K	22.67 ± 0.23
36.78 K	23.42 ± 0.24
37.5 K	24.11 ± 0.25
38.21 K	24.83 ± 0.26
38.91 K	25.52 ± 0.26
39.6 K	26.21 ± 0.27
40 K	26.59 ± 0.27
40.28 K	26.89 ± 0.28
40.99 K	27.59 ± 0.28
41.73 K	28.3 ± 0.29
42.48 K	29.02 ± 0.3
43.26 K	29.78 ± 0.31
44.03 K	30.54 ± 0.31
44.8 K	31.29 ± 0.32
45.6 K	32.07 ± 0.33
46.41 K	32.85 ± 0.34
47.23 K	33.62 ± 0.34
48.05 K	34.43 ± 0.35
48.87 K	35.18 ± 0.36
49.66 K	35.98 ± 0.37
50 K	36.27 ± 0.37
50.46 K	36.72 ± 0.38
51.3 K	37.5 ± 0.38
52.17 K	38.33 ± 0.39
53.08 K	39.16 ± 0.4
54 K	40.03 ± 0.41
54.92 K	40.88 ± 0.42
55.87 K	41.75 ± 0.43
56.84 K	42.65 ± 0.44
57.8 K	43.54 ± 0.45
58.75 K	44.39 ± 0.45
59.68 K	45.25 ± 0.46
60 K	45.54 ± 0.47
60.61 K	46.09 ± 0.47
61.55 K	46.94 ± 0.48
62.48 K	47.76 ± 0.49
63.4 K	48.61 ± 0.5
64.31 K	49.43 ± 0.5
65.22 K	50.22 ± 0.51
66.18 K	51.08 ± 0.52
67.16 K	51.94 ± 0.53
68.22 K	52.9 ± 0.54
69.33 K	53.88 ± 0.55
70 K	54.46 ± 0.55
70.43 K	54.83 ± 0.56
71.5 K	55.79 ± 0.57
72.63 K	56.77 ± 0.58
73.81 K	57.78 ± 0.59
74.97 K	58.8 ± 0.6
76.11 K	59.77 ± 0.61
77.23 K	60.74 ± 0.62
78.4 K	61.72 ± 0.63
79.61 K	62.76 ± 0.64
80 K	63.1 ± 0.64
80.81 K	63.77 ± 0.65
81.98 K	64.8 ± 0.66
83.14 K	65.76 ± 0.67
84.34 K	66.77 ± 0.68
85.59 K	67.84 ± 0.69
86.82 K	68.83 ± 0.7
88.03 K	69.88 ± 0.71
89.22 K	70.89 ± 0.72
90 K	71.52 ± 0.74
90.46 K	71.89 ± 0.74
91.74 K	72.99 ± 0.76
93 K	73.99 ± 0.77
94.24 K	75.03 ± 0.78
95.47 K	76.03 ± 0.79
96.74 K	77.1 ± 0.8
98.05 K	78.13 ± 0.81
99.34 K	79.2 ± 0.82
100 K	79.73 ± 0.82
100.61 K	80.23 ± 0.83
101.88 K	81.25 ± 0.84
103.17 K	82.3 ± 0.85
104.51 K	83.38 ± 0.86
105.83 K	84.42 ± 0.87
107.14 K	85.5 ± 0.88
108.44 K	86.51 ± 0.89
109.77 K	87.55 ± 0.9
110 K	87.77 ± 0.9
111.13 K	88.69 ± 0.91
112.49 K	89.72 ± 0.92
113.83 K	90.79 ± 0.93
115.15 K	91.82 ± 0.94
116.54 K	92.94 ± 0.95
118 K	94.07 ± 0.96
119.43 K	95.21 ± 0.97
120 K	95.65 ± 0.98
120.86 K	96.29 ± 0.99
122.27 K	97.42 ± 1
123.72 K	98.53 ± 1
125.19 K	99.73 ± 1
126.66 K	100.86 ± 1
128.15 K	101.99 ± 1
129.65 K	103.12 ± 1.1
130 K	103.4 ± 1.1
131.18 K	104.32 ± 1.1
132.78 K	105.56 ± 1.1
134.41 K	106.79 ± 1.1
136.01 K	107.97 ± 1.1
137.61 K	109.25 ± 1.1
139.24 K	110.5 ± 1.1
140 K	111.05 ± 1.1
140.9 K	111.75 ± 1.1
142.55 K	112.96 ± 1.1
144.18 K	114.21 ± 1.2
145.81 K	115.47 ± 1.2
147.46 K	116.73 ± 1.2
149.19 K	117.96 ± 1.2
150 K	118.61 ± 1.2
150.94 K	119.3 ± 1.2
152.67 K	120.61 ± 1.2
154.39 K	121.92 ± 1.2
156.15 K	123.22 ± 1.2
157.94 K	124.55 ± 1.3
159.71 K	125.9 ± 1.3
160 K	126.11 ± 1.3
161.48 K	127.16 ± 1.3
163.23 K	128.53 ± 1.3
165.01 K	129.85 ± 1.3
166.83 K	131.22 ± 1.3
168.63 K	132.53 ± 1.4
170 K	133.55 ± 1.4
170.42 K	133.87 ± 1.4
172.26 K	135.21 ± 1.4
174.19 K	136.66 ± 1.4
176.16 K	138.12 ± 1.4
178.11 K	139.54 ± 1.4
180 K	140.95 ± 1.4
180.05 K	140.98 ± 1.4
181.97 K	142.44 ± 1.4
183.93 K	143.86 ± 1.5
185.92 K	145.37 ± 1.5
187.9 K	146.78 ± 1.5
189.86 K	148.24 ± 1.5
190 K	148.33 ± 1.5
191.82 K	149.62 ± 1.5
193.8 K	151.13 ± 1.5
195.89 K	152.65 ± 1.6
198.03 K	154.23 ± 1.6
200 K	155.71 ± 1.6
200.16 K	155.79 ± 1.6
202.27 K	157.38 ± 1.6
204.41 K	158.97 ± 1.6
206.59 K	160.59 ± 1.6
208.75 K	162.27 ± 1.6
210 K	163.12 ± 1.6
210.91 K	163.79 ± 1.7
213.05 K	165.43 ± 1.7
215.22 K	166.88 ± 1.7
217.41 K	168.61 ± 1.7
219.6 K	170.28 ± 1.7
220 K	170.57 ± 1.7
221.78 K	172.01 ± 1.7
223.94 K	173.59 ± 1.8
226.14 K	175.1 ± 1.8
228.44 K	176.89 ± 1.8
230 K	178.09 ± 1.8
230.8 K	178.65 ± 1.8
233.16 K	180.52 ± 1.8
235.5 K	182.33 ± 1.8
237.87 K	184.07 ± 1.9
240 K	185.67 ± 1.9
240.27 K	185.87 ± 1.9
242.65 K	187.7 ± 1.9
245.03 K	189.43 ± 1.9
247.39 K	191.32 ± 1.9
249.78 K	193.01 ± 1.9
250 K	193.28 ± 1.9
252.2 K	194.95 ± 2
254.6 K	196.74 ± 2
257 K	198.58 ± 2
259.38 K	200.5 ± 2
260 K	200.91 ± 2
261.79 K	202.31 ± 2
264.29 K	204.15 ± 2.1
266.82 K	206.25 ± 2.1
269.35 K	208.09 ± 2.1
270 K	208.52 ± 2.1
271.87 K	210.03 ± 2.1
274.41 K	211.71 ± 2.1
276.98 K	213.84 ± 2.2
279.54 K	215.75 ± 2.2
280 K	216.17 ± 2.2
282.08 K	217.72 ± 2.2
284.61 K	219.77 ± 2.2
287.17 K	221.78 ± 2.2
289.76 K	223.86 ± 2.3
290 K	224.03 ± 2.3
292.33 K	225.93 ± 2.3
294.92 K	227.98 ± 2.3
297.52 K	230.08 ± 2.3
298.15 K	230.55 ± 2.3
300 K	232.04 ± 2.3
300.15 K	232.18 ± 2.3
302.81 K	234.38 ± 2.4
305.45 K	236.46 ± 2.4
308.08 K	238.4 ± 2.4
310 K	240.14 ± 2.4
310.7 K	240.73 ± 2.4
313.34 K	242.98 ± 2.5
316 K	244.99 ± 2.5
318.66 K	247.19 ± 2.5
320 K	248.27 ± 2.5
321.3 K	249.35 ± 2.5
323.93 K	251.32 ± 2.5
326.58 K	253.53 ± 2.6
329.26 K	255.9 ± 2.6
330 K	256.36 ± 2.6
